# Test results published in patent US10299714B2, “Blood collection devices containing blood stabilization agent including variegin or analog thereof and/or a polysulfated disaccharide” (Becton, Dickinson and Company, priority 2010, dated 2019).
# What was measured:
# platelets = experiment: Whole blood impedance aggregometry (Multiplate): platelet aggregation after room temperature storage of drawn blood; format: cell-based, human; conditions: for Time after blood draw where aggregation was still measurable above baseline: Table 5, collagen and/or ADP
# Source text: The blood was allowed to stand at room temperature, in undisturbed aliquots, until tested at the times indicated. Samples were inverted several times immediately prior to testing, to re-suspend blood cells that naturally settle over time.
# Measurements: Testing of platelet function (which in this experiment, was aggregation activity) was done using the Multiplate instrument (Verum Diagnostics, Munich, Germany), which uses whole blood as the sample and an increase in impedance as the measurement of platelet aggregation. The instrument was used per manufacturer's instructions. Briefly, 300 microliters of isotonic saline was warmed in each reaction cuvette, and to this was added 300 microliters of the whole blood sample. In reactions where aspirin or other platelet antagonists (inhibitors) were added in vitro, 20 microliters (μL) of a stock solution of aspirin was spiked into the samples. The aggregation reaction was initiated by addition of a platelet agonist, in this case collagen, at 3.2 μg/ml and volume (20 μl) per manufacturer's instructions. Upon addition of the collagen, the impedance measurements began automatically, and were continued for 6 minutes, representing the full course along the x-axis in the graphs shown in FIG. 2. The graphs show platelet aggregation, as reported by impedance, as an arbitrary unitless measurement on the y-axis, over the 6-minute run time on the x-axis. Traces shown are raw platelet aggregation data delivered from the instrument. […] Representative data are shown for blood that dwells at room temperature after the initial draw for 1 hr, 24 hr, 48 hr, and 72 hr. Data are shown for the blood itself, as well for blood pre-treated with aspirin to inhibit platelet function immediately prior to testing.
# The experiments were performed as described in Example 1. In this case, the data are plotted as a function of time that the blood sample dwells outside of the body (x-axis) versus platelet function as shown as the area under the curve (AUC) as one representation of the platelet aggregation signal. AUC is the integrated signal from the raw data traces shown in Example 1, and also is reported as a unitless measurement. The effective background level of the instrument is drawn as a dashed line across the bottom of the graph. Any AUC measurement of aggregation at or below this level was considered so weak as to be unreportable, essentially representing a “null” data level.
# (§1) Relative stability of platelets was examined with respect to a range of concentrations of variegin (SEQ ID NO:1). Experiments were performed as described above, using either collagen or adenosine diphosphate (ADP) as agonists, all per manufacturer's recommended protocols. Table 2 lists a qualitative assessment of stability, namely how long after initially drawing the blood was platelet aggregation measureable above the effective instrument baseline, the time to first visual observation of clotted, insoluble material in the whole blood sample, and an assessment of the severity or extent of the presence of this insoluble material was also recorded.
# These peptides were used as the blood stabilization agent, and were spiked into blood immediately after collection into an empty, evacuated blood collection tube, achieving a final concentration of 150 μM. The blood was allowed to dwell in a whole-blood state at room temperature, until assayed for platelet aggregation potential, all as described in Example 1. Agonists used included collagen and ADP, following manufacturer's instructions.
# whole blood sample [1] = experiment: Visual inspection of stored whole blood sample for hemolysis; format: cell-based, human
# Source text: Skilled practitioners will appreciate the hemolyzed samples are an obvious visual clue that damage to blood cells has occurred, either during the collection, transport, or storage of blood samples. Although hemolysis is not necessarily detrimental to any one clinical assay, it is a well known interference for some tests, and thus it is preferable to avoid causing hemolysis. Hemolysis can be measured by visual scale (e.g., mild or slightly pink, moderate or noticeably red, or severe or dark red). Hemolysis can also be measured by spectroscopic measurement of the red color of the hemoglobin itself, and can be reported by the concentration of hemoglobin released into the serum or plasma (e.g., such that less than about 20 mg/dL concentration of released hemoglobin, or to an extent that the hemoglobin concentration cannot be measured visually or by spectroscopy represents “minor or negligible” hemolysis, about 20 to about 100 mg/dL represents “mild” hemolysis, about 100 to about 300 represents “moderate” hemolysis, or greater than about 300 mg/dL represents “severe” hemolysis).
# (§2) The results are shown in Table 5 which lists additives alone or in combination that were spiked into freshly drawn whole blood samples. […] For some of the conditions tested, only a subset of these three parameters was recorded.
# whole blood sample [2] = experiment: Visual inspection of stored whole blood sample for clotted, insoluble material; design: species or system human
# Description: as §1
# These peptides were used as the blood stabilization agent, and were spiked into blood immediately after collection into an empty, evacuated blood collection tube, achieving a final concentration of 150 μM. The blood was allowed to dwell in a whole-blood state at room temperature, until assayed for platelet aggregation potential, all as described in Example 1. Agonists used included collagen and ADP, following manufacturer's instructions. Table 4 lists a qualitative assessment of stability, namely how long after initially drawing the sample was platelet aggregation measureable above the effective instrument baseline. Additionally, the time to first visual observation of clotted, insoluble material in the whole blood sample, and an assessment of the severity or extent of the presence of this insoluble material was also recorded. In some cases, only visual characterization of the amount of insoluble material was reported, without having performed any platelet aggregation measurements.
# as §2
# thrombin = thrombin (Homo sapiens, UniProt P00734); conditions: reported in Koh; cited from earlier work
# [3] = relatively high concentration, used alone
Molecule,Time after blood draw where aggregation was still measurable above baseline (platelets; additive alone at 50 μM),Time after blood draw where aggregation was still measurable above baseline (platelets; additive alone at 75 μM),Time after blood draw where aggregation was still measurable above baseline (platelets; additive alone at 100 μM),time for stability of the sample for platelet aggregation measurements (platelets; [3]),"Visual inspection for hemolysis (whole blood sample [1]; Table 5, additive alone at 100 μM)",hemolysis (whole blood sample [1]; [3]),onset of clotting (whole blood sample [2]; [3]),thrombin inhibition for therapeutic purposes (thrombin),"time after blood draw to solid clotting of the sample (whole blood sample [2]; peptide 150 μM, room temperature)"
"C[C@@H]1CCN(C(=O)[C@H](CCCN=C(N)N)NS(=O)(=O)c2cccc3c2NC[C@H](C)C3)[C@@H](C(=O)O)C1 [Argatroban, (2R,4R)-1-[(2S)-5-(diaminomethylideneamino)-2-[[(3R)-3-methyl-1,2,3,4-tetrahydroquinolin-8-yl]-sulfonylamino]pentanoyl]-4-methyl-piperidine-2-carboxylic acid, reference compound]",30 h,24 h,24 h,less time for stability of the sample for platelet aggregation measurements,Extensive,extensive amounts of hemolysis,faster onset of clotting,–,–
MHKTAPPFDFEAIPEEYLDDES (Synthetic Peptide Variegin Fragment) [Ct22],–,–,–,–,–,–,–,effective thrombin inhibitor,clots solidly within one hour
